Data set [1] relates to lactonase enzyme purified from human plasma. It is filed as biochemical. As to conditions: for Restoration of lactonase activity in the presence of EDTA and EGTA: salt added at 100 mM. The method, then: The enzyme activity purified according to A. above was tested with classical inhibitors in order to establish to which enzyme family it belongs. Also, it was investigated whether a divalent cation was required as a co-factor, as disclosed in W. N. Fishbein et al, Journal of Biological Chemistry 1966, 241(21), 4835-4841.

For a further data set, the target named is human serum paraoxonase (Homo sapiens, UniProt P27169). Put plainly: Hydrolysis by human serum paraoxonase (enzymatic hydrolysis test method). Format: in vitro ADME. The note with it: 5% bovine serum albumin, 20 mM CaCl2, 37° C. As to the method:
The compounds herein have relatively short half-lives in blood in vitro. A test method for determining the half-life of the compounds under defined enzymatic hydrolysis conditions in vitro is now described. The test method is believed to provide a suitable indicator as to effects in vivo. In the test method, the hydrolysis of test compounds by a lactonase enzyme is monitored using RP HPLC with UV detection.
The ‘enzymatic hydrolysis test method’ is as follows: Incubations are carried out in 1 ml volumes in an aqueous medium containing 5% bovine serum albumin in the presence of 20 mM CaCl2. The solutions are preincubated at 37° C. for 5 minutes before the addition of the test compound (5 μl of a 5 mg/ml solution in DMSO) and then lactonase enzyme (10 μl to the 1 ml incubations). Control incubations containing no enzyme are also included. The enzymatic hydrolysis is monitored by removal of aliquots and quenching the reaction by the addition of an equal volume of acetonitrile. The samples are vortex mixed, then centrifuged and the supernatants are transferred to autosampler vials for HPLC analysis.
In a suitable HPLC procedure, aliquots (20 μl) of the supernatants are injected onto a Zorbax Rx C8 column (250×4.6mm; Hichrom). The column is maintained at 40° C. and eluted at a flow rate of 1.0 mL/min with a mobile phase of acetonitrile: 50 mM ammonium formate (65:35) adjusted to pH 4.2 with formic acid. Detection is by UV absorbance at 240 nm, and chromatographic peak areas for both parent and metabolite are measured.
In a preferred aspect, the half-life of each compound may be determined by a method in which peak areas are plotted against time on a log-linear scale, and the half lives determined by extrapolation or interpolation of a straight line joining two points.
The above described ‘enzymatic hydrolysis test method’ employs lactonase enzyme. Suitable forms of lactonase enzyme include human serum paraoxonase or a recombinant form thereof, or purified lactonase, obtained from human plasma as described hereinafter. Purification of human serum paraoxonase is described by C E Furlong et al, Chem.Biol.Interactions, Vol 87, p35-48, (1993) and recombinant human serum paraoxonase is described in International Patent application No. WO 96/01322
The susceptibility to hydrolysis by human serum paraoxonase of certain of the compounds of the Examples was assessed using the test protocol of the ‘enzymatic hydrolysis test method’ described herein.

Data set [2] deals with T1, Human Glucocorticoid Receptor (Homo sapiens, UniProt P04150).
T1 construct: endogenous in cells; host or cells: HeLa cells stably transfected with an MMTV-LTR sPAP reporter
T1 sequence (P04150 1-777): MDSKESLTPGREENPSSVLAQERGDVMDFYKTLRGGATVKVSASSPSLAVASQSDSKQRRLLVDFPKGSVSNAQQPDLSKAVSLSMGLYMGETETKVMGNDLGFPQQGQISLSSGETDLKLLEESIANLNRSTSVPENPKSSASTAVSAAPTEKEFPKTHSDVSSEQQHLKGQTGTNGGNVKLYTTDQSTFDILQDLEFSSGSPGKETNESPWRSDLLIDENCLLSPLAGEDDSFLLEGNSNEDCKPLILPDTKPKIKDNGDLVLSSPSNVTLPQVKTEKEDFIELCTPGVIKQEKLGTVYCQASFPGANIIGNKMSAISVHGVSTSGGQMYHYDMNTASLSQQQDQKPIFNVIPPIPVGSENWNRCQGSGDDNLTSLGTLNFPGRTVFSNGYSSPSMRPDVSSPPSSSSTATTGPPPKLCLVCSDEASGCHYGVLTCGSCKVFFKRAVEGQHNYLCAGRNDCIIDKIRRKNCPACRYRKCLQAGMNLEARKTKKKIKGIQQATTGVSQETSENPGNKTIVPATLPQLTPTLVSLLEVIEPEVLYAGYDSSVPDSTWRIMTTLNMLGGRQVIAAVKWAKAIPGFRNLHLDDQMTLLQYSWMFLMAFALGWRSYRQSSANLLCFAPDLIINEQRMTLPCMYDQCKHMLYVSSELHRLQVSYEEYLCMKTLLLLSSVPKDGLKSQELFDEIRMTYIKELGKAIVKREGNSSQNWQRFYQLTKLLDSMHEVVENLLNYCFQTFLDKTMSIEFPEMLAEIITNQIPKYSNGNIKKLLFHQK
The data set can be described thus: Functional in vitro glucocorticoid activity assay: Hela cells stably transfected with sPAP reporter gene under MMTV LTR promoter. It is filed as cell-based. As to conditions: 72 hours incubation, values given as 'less than (about)', read-out: EC50 (sPAP transcription, glucocorticoid activity). The source says: The functional assay used was a modification of the method described by T. S Berger et al, of J. of Steroid Biochem. Molec. Biol. 1992, 41 (3-8), 733-738, “Interaction of Glucocorticoid analogues with the Human Glucocorticoid Receptor”. Thus, Hela cells were stably transfected with a detectable reporter gene (secreted placental alkaline phosphatase, sPAP) under the control of a glucocorticoid response promoter (the LTR of the mouse mammary tumour virus, MMTV). Various concentrations of standard (dexamethasone) or compounds of the invention were incubated with transfected Hela cells for 72 hours. At the end of the incubation, substrate ([…]) for sPAP was added and the product measured by a spectrophotometric method. Increased absorbance reflected increased sPAP transcription and concentration-response lines were constructed such that EC50-values could be estimated.

Data set [3] can be described thus: Stability in human plasma test method. It is filed as in vitro ADME. As to conditions: 37° C. The method, then:
The stability of various of the compounds of the Examples in human plasma was tested using the following ‘stability in human plasma’ test method: 500 μl aliquots of human plasma in screw capped polypropylene tubes were preincubated at 37° C. in a waterbath for 5 minutes. The plasma samples were then spiked with 5 μl of test compound (nominally 5 mg/ml in DMSO). Aliquots (100 μl ) were removed immediately and after 5 minutes and mixed with an equal volume of acetonitrile. The samples were centrifuged and the supernatants were transferred to autosampler vials for HPLC and half-life analysis.
In the HPLC procedure, aliquots (20 μl) of all the supernatants were injected onto a Zorbax Rx C8 column (250×4.6mm; Hichrom). The column was maintained at 40° C. and eluted at a flow rate of 1.0 mL/min with a mobile phase of acetonitrile: 50 mM ammonium formate (65:35) adjusted to pH 4.2 with formic acid. Detection was by UV absorbance at 240 nm, and chromatographic peak areas for both parent and metabolite were measured
To determine the half-life, for each compound peak areas were plotted against time on a log-linear scale, and the half lives determined by extrapolation or interpolation of a straight line joining two points.

Where two headings read alike, the source gives them in different places.

As usually defined, the EC50 is the concentration at which the effect is half-maximal. The term half-life denotes the time needed for the level to fall by half in the phase considered. A high value points to slow decline.

Chain of human serum paraoxonase (P27169 whole entry): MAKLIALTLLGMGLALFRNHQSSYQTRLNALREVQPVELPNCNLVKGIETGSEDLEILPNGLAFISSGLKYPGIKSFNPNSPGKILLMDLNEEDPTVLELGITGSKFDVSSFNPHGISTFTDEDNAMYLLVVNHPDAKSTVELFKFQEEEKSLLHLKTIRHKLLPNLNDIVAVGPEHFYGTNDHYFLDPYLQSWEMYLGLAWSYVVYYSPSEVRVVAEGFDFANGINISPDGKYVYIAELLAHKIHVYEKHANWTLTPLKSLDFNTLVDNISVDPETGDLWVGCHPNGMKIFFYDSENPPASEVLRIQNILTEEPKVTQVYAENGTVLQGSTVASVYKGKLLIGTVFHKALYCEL

For `O=S(=O)(F)Cc1ccccc1` [phenylmethylsulphonyl fluoride (PMSF), phenylmethylsulphonyl fluoride], the “Inhibition of lactonase activity” value in data set [1] (inhibitor at 10 mM) was “not inhibited”. As to `CNC(=O)Oc1ccc2c(c1)[C@]1(C)CCN(C)[C@@H]1N2C` [eserine], the “Inhibition of lactonase activity” value in data set [1] (inhibitor at 50 mM) was “not inhibited”. Turning to `CCC(=O)OC1(C(=O)OC2COC(=O)O2)C(C)CC2C3CC(F)C4=CC(=O)C=CC4(C)C3(F)C(O)CC21C` (single isomer, unassigned; isomer a) [Example 9 isomer A, 6α,9α-Difluoro-11β-hydroxy-16α-methyl-3-oxo-17α-propionyloxy-androsta-1,4-diene-17β-carboxylic acid O-(2-oxo-1,3-dioxolan-4-yl) ester], the “Hydrolysis by human serum paraoxonase” value at human serum paraoxonase is on record as “hydrolysed”. Regarding `CSC(=O)[C@@]1(OC(=O)CSC2COC(=O)C2)[C@H](C)C[C@H]2[C@@H]3C[C@H](F)C4=CC(=O)C=C[C@]4(C)[C@@]3(F)[C@@H](O)C[C@@]21C` (stereo partly drawn) [Example 3, 6α,9α-Difluoro-11β-hydroxy-16α-methyl-3-oxo-17α-(2-oxo-tetrahydro-furan-4-ylsulfanyl-acetoxy)-androsta-1,4-diene-17β-carbothioic acid methyl ester], the EC50 in data set [2] is less than 250 nM. This compound came in with a half-life at 49.5 µg/mL in data set [3] of less than 10 min. Further, the “Hydrolysis by human serum paraoxonase” value on human serum paraoxonase is given as “hydrolysed”. For `O=C(O)CN(CCOCCOCCN(CC(=O)O)CC(=O)O)CC(=O)O` [EGTA], in data set [1] (inhibitor at 1 mM), the “Inhibition of lactonase activity” value is on record as “totally inhibited”. With `[Cl-].[Cl-].[Mg+2]` [MgCl2], in data set [1], the “Restoration of lactonase activity in the presence of EDTA and EGTA” value was “not restored”.

As to `C[C@]12C=CC(=O)C=C1CC[C@H]1[C@@H]3C[C@H]4CC(=O)O[C@@]4(C(=O)CO)[C@@]3(C)C[C@H](O)[C@@]12F` [Example 5, 9α-Fluoro-11β,17α,21-trihydroxy-3,20-dioxo-pregna-1,4-diene-16α-acetic acid γ-lactone], the EC50 in data set [2] is less than 250 nM. Still for that read-out and setting: under `C[C@@H]1C[C@H]2[C@@H]3C[C@H](F)C4=CC(=O)C=C[C@]4(C)[C@@]3(F)[C@@H](O)C[C@]2(C)[C@]12OC(=O)SC2=O` [Example 1, 6α,9α-Difluoro-11β-hydroxy-16α-methyl-17-spiro[androsta-1,4-diene-17,5′-[1,3]oxathiolane]-2′,3,4′-trione] stands less than 250 nM. `O=S(=O)([O-])[O-].[Zn+2]` [zinc sulphate]: the “Inhibition of lactonase activity” value in data set [1] (inhibitor at 1 mM) is reported as “totally inhibited”. As to `CCC(=O)O[C@]1(C(=O)SCc2oc(=O)oc2C)[C@H](C)C[C@H]2[C@@H]3C[C@H](F)C4=CC(=O)C=C[C@]4(C)[C@@]3(F)[C@@H](O)C[C@@]21C` [Example 10, 6α,9α-Difluoro-11β-hydroxy-16α-methyl-3-oxo-17α-propionyloxy-androsta-1,4-diene-17β-carbothioic acid S-(5-methyl-2-oxo-1,3-dioxol-4-ylmethyl) ester], the EC50 in data set [2] was less than 500 nM. Moreover, the half-life at 49.5 µg/mL in data set [3] is less than 10 min. Turning to `[Ca+2].[Cl-].[Cl-]` [CaCl2], the “Restoration of lactonase activity in the presence of EDTA and EGTA” value in data set [1] is reported as “fully restored”. As to `CCC(=O)OC1(C(=O)SC2COC(=O)O2)C(C)CC2C3CC(F)C4=CC(=O)C=CC4(C)C3(F)C(O)CC21C` (single isomer, unassigned) [Example 7 isomer A, 6α,9α-Difluoro-11β-hydroxy-16α-methyl-3-oxo-17α-propionyloxy-androsta-1,4-diene-17β-carbothioic acid S-(2-oxo-1,3-dioxolan-4-yl) ester], the EC50 in data set [2] was less than 500 nM. The “Hydrolysis by human serum paraoxonase” value at human serum paraoxonase is “hydrolysed”.

`CCC(=O)O[C@]1(C(=O)SCC2CCOC2=O)[C@H](C)C[C@H]2[C@@H]3C[C@H](F)C4=CC(=O)C=C[C@]4(C)[C@@]3(F)[C@@H](O)C[C@@]21C` (single isomer, unassigned) [Example 2, 6α,9α-Difluoro-11β-hydroxy-16α-methyl-3-oxo-17α-propionyloxy-androsta-1,4-diene-17β-carbothioic acid S-(2-oxo-tetrahydro-furan-3-ylmethyl) ester]: the EC50 in data set [2] was less than 250 nM. `O=C(O)CN(CCN(CC(=O)O)CC(=O)O)CC(=O)O` [EDTA]: the “Inhibition of lactonase activity” value in data set [1] is on record as “totally inhibited”.

With `O=C(O)c1cc[c]([Hg][Cl])cc1` [p-chloromercuribenzoate (PCMB), p-chloromercuribenzoate], the “Inhibition of lactonase activity” value in data set [1] (inhibitor at 1 mM) is on record as “slightly inhibited”. For the compound `CCC(=O)OC1(C(=O)OCc2oc(=O)oc2C)C(C)CC2C3CC(F)C4=CC(=O)C=CC4(C)C3(F)C(O)CC21C` (stereo not drawn) [Example 12, 6α,9α-Difluoro-11β-hydroxy-16α-methyl-3-oxo-17α-propionyloxy-androsta-1,4-diene-17β-carboxylic acid O-(5-methyl-2-oxo-1,3-dioxol-4-ylmethyl) ester], on human serum paraoxonase, the “Hydrolysis by human serum paraoxonase” value is on record as “hydrolysed”.

For the origin of these results see patent US20020019378A1, “COMPOUNDS” (priority 1997, published 2002).
